For one experiment, the system named is HuH-7 cells. In words: Growth inhibitory effect on cancer cells (WST assay), Example 2.3. The class given is cell-based, human. The note with it: HuH-7 cells, WST assay, concentrations 0-50 μM, control 0.1% DMSO. In short, it runs like this:
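HuH-7 human hepatoma cells seeded at 5×10^3 cells/well, treated after 24 h with compound at 0–50 μM (0.1% DMSO vehicle control), n=3. Viability read by WST (CCK-8) absorbance at 450/600 nm after 60 min at 37 °C, taken 0, 24, 48 and 96 h post-treatment; kit-only blank subtracted.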

The test system of a further experiment is liver fibrosis. In words: Non-alcoholic steatohepatitis model mouse (Azan staining). The note with it: high fat diet 12 weeks, drug for last 6 weeks, IC-2 21.2 mg/kg i.p. 3 times a week, vs vehicle group. The format is in vivo, C57BL/6JHamSlc-ob/ob male mice. The method, then: To induce anesthesia, 1-mL disposable syringe with a 27-G needle was used to intraperitoneally inject, into a mouse, 1 μL/g body weight of a systemic anesthetic somnopentyl (Kyoritsuseiyaku Corporation, Tokyo).
The liver tissue sample, as so resected, was fixed in 4% paraformaldehyde at room temperature for 16 h, embedded in paraffin, and sectioned with a microtome to prepare tissue sections. The tissue sections were subjected to deparaffinization using xylene (Nacalai tesque) and a hydration reaction with ethanol (Nacalai tesque), and were then allowed to stand in 5% potassium dichromate/trichloroacetic acid aqueous solution (Wako Pure Chemical Industries, Ltd.) for 20 min. After washing in running water for 5 min, the tissue sections were stained with Azocarmine G (Wako Pure Chemical Industries, Ltd.) at 60° C. for 1 h, washed with water, and then destained for 3 min in 5% aniline (Nacalai tesque)-containing ethanol solution. Next, 5% acetic acid (Nacalai tesque)-containing ethanol solution was used to stop the destaining reaction. After washing with water, the tissue sections were allowed to stand in 5% phosphotungstic acid aqueous solution (Alfa Aesar, Ward Hill, Mass.) for 1 h. […] The ratio of the blue-stained fiber area to the total tissue area of each photographed image was quantified to calculate a fibrosis-positive area ratio. […]

The source of these data is patent US10597398B2, “Suppression and regeneration promoting effect of low molecular weight compound on cancer and fibrosis” (NATIONAL UNIVERSITY CORPORATION TOTTORI UNIVERSITY, priority 2015, dated 2020).

Bounds are passed on as bounds.

For orientation: IC50 means the point on the concentration scale where inhibition reaches its midpoint. In the experiment on HuH-7 cells, `COc1ccc(COc2ccc(CNC(=O)N3CCC(=O)N4C(Cc5ccccc5)C(=O)N(Cc5cccc6ccccc56)CC34)cc2)cc1` (centres unmarked) [IC-2-OPMB] came in with an IC50 of more than 50 µM. In the case of `O=C1C(Cc2ccccc2)N2C(=O)CCN(C(=O)NCc3ccccc3)C2CN1Cc1cccc2ccccc12` (centres unmarked) [IC-2], the “fibrosis area (Azan staining)” value with liver fibrosis is reported as “decrease more than that of the vehicle group”.
